Assays:
[1] = system: Candida albicans ATCC38247 (resistant to fluconazole); assay: Filter paper disc antifungal assay on agar plates; type: cell-based; conditions: 5 mm disc, 37° C. 24 hours
Protocol: (§1) Compound 22 (the chloride salt) of table 1 was dissolved and the solution applied to a filter paper disc of diameter 5 mm. The filter paper discs were placed on plates containing the following strains of Candida albicans:
ATCC38247 (resistant to fluconazole)
(§2) The compound was applied at concentrations of 0.5, 1, 5, 10, 25 and 50 μg/ml. Nystatin and fluconazole at the same concentrations were applied in the same manner. […] All strains were tested at least three times.
(§3) Clearly, the higher the number, the greater the antifungal activity.

[2] = system: Candida albicans MYA576 (resistant to nystatin); assay: Filter paper disc antifungal assay on agar plates; type: cell-based; conditions: 5 mm disc, 37° C. 24 hours
Protocol: as §1
MYA576 (resistant to nystatin).
as §2, §3

M. tuberculosis = assay: Growth on solid media in presence of test compound; type: cell-based, Mycobacterium tuberculosis; conditions: result on solid media
[3] = system: Candida albicans ATCC90028 (wild type); assay: Filter paper disc antifungal assay on agar plates; type: cell-based; conditions: 5 mm disc, 37° C. 24 hours
Protocol: as §1
ATCC90028 (“wild type”, i.e. not resistant to nystatin or fluconazole)
as §2, §3

Candida albicans = assay: Filter paper disc antifungal assay, Candida albicans strains overall; type: cell-based
Protocol: as §1, §2, §3

[4] = system: Staphylococcus aureus (ATCC 25923); assay: Growth in liquid media in presence of test compound; type: cell-based
[5] = system: Escherichia coli (ATCC 25922); assay: as above; type: cell-based
[6] = system: Pseudomonas aeruginosa (ATCC 27853); assay: as above; type: cell-based
[7] = system: Candida albicans (ATCC 90028); assay: as above; type: cell-based
[8] = system: Streptococcus pyogenes (ATCC 19615); assay: as above; type: cell-based

In the case of CC1(C)C2CC3OB([C@@H](CNC(=O)[C@@H](N)Cc4ccccc4)Cc4ccc5ccccc5c4)O[C@]3(C)C1C2.Cl (stereo partly drawn) [Compound 22, α-naphthyl-β-amino-(−)-pinanedioleboronate-N-], the “diameter of the area which did not show any Candida growth” value ([1]; ATCC38247, 0.5 μg/ml) is reported as 5 millimeters, the “diameter of the area which did not show any Candida growth” value ([1]; ATCC38247, 1 μg/ml) is reported as 5.21 millimeters and the “diameter of the area which did not show any Candida growth” value ([1]; ATCC38247, 5 μg/ml) is reported as 7.43 millimeters. For the same compound, the “diameter of the area which did not show any Candida growth” value ([1]; ATCC38247, 10 μg/ml) was 12.86 millimeters, the “diameter of the area which did not show any Candida growth” value ([1]; ATCC38247, 25 μg/ml) was 17.29 millimeters and the “diameter of the area which did not show any Candida growth” value ([1]; ATCC38247, 50 μg/ml) was 19.14 millimeters. For the same compound, the “diameter of the area which did not show any Candida growth” value ([2]; MYA576, 0.5 μg/ml) was 5.33 millimeters, the “diameter of the area which did not show any Candida growth” value ([2]; MYA576, 1 μg/ml) was 6.67 millimeters and the “diameter of the area which did not show any Candida growth” value ([2]; MYA576, 5 μg/ml) was 10.67 millimeters. For the same compound, the “diameter of the area which did not show any Candida growth” value ([2]; MYA576, 10 μg/ml) was 12.67 millimeters, the “diameter of the area which did not show any Candida growth” value ([2]; MYA576, 25 μg/ml) was 14.33 millimeters and the “diameter of the area which did not show any Candida growth” value ([2]; MYA576, 50 μg/ml) was 15.67 millimeters. For the same compound, the “Growth in the presence of test compound, M. tuberculosis” value (“Growth … M. tuberculosis” for short) (M. tuberculosis; 5 mg/L) was “+”, the “Growth … M. tuberculosis” value (M. tuberculosis; 50 mg/L) was “+” and the “Growth … M. tuberculosis” value (M. tuberculosis; 500 mg/L) was “−”. For the same compound, the “diameter of the area which did not show any Candida growth” value ([3]; ATCC90028, 0.5 μg/ml) was 5 millimeters, the “diameter of the area which did not show any Candida growth” value ([3]; ATCC90028, 1 μg/ml) was 6 millimeters and the “diameter of the area which did not show any Candida growth” value ([3]; ATCC90028, 5 μg/ml) was 6.875 millimeters. The “diameter of the area which did not show any Candida growth” value ([3]; ATCC90028, 10 μg/ml) was 11.75 millimeters, the “diameter of the area which did not show any Candida growth” value ([3]; ATCC90028, 25 μg/ml) was 15.25 millimeters and the “diameter of the area which did not show any Candida growth” value ([3]; ATCC90028, 50 μg/ml) was 17 millimeters. For the same compound, the “lowest concentration at which activity was shown” value (Candida albicans) was 1 µg/mL, the “Growth in the presence of test compound, S. aureus” value (“Growth in the presence … S. aureus” for short) ([4]; 5 mg/L) was “+” and the “Growth in the presence … S. aureus” value ([4]; 50 mg/L) was “±”. For the same compound, the “Growth in the presence … S. aureus” value ([4]; 500 mg/L) was “+”, the “Growth in the presence of test compound, E. coli” value (shortened to “Growth in the presence … E. coli”) ([5]; 5 mg/L) was “+” and the “Growth in the presence … E. coli” value ([5]; 50 mg/L) was “+”. For the same compound, the “Growth in the presence … E. coli” value ([5]; 500 mg/L) was “+”, the “Growth in the presence of test compound, P. aeruginosa” value (from here on “Growth … P. aeruginosa”) ([6]; 5 mg/L) was “+” and the “Growth … P. aeruginosa” value ([6]; 50 mg/L) was “±”. The “Growth … P. aeruginosa” value ([6]; 500 mg/L) was “+”, the “Growth in the presence of test compound, C. albicans” value (shortened to “Growth in the presence … C. albicans”) ([7]; 5 mg/L) was “+” and the “Growth in the presence … C. albicans” value ([7]; 50 mg/L) was “−”. The “Growth in the presence … C. albicans” value ([7]; 500 mg/L) was “±”, the “Growth in the presence of test compound, S. pyogenes” value (from here on “Growth in the presence … S. pyogenes”) ([8]; 5 mg/L) was “+” and the “Growth in the presence … S. pyogenes” value ([8]; 50 mg/L) was “−”. For the same compound, the “Growth in the presence … S. pyogenes” value ([8]; 500 mg/L) was “+”.
